According to US20060167110A1 (priority 1995, published 2006):

System: rat embryonic mesencephalic cells
Test: [3H]dopamine uptake, medium change (glutamate receptor dependent) model of cell death
Description: Preparations are then added to 10 ml Ecoscint (National Diagnostics) and counted in a scintillation spectrometer.
In these experiments, cells were plated and allowed to stabilize for several days.

For `C[C@]12N[C@H](Cc3ccccc31)c1ccccc12` [MK-801, reference compound], the “neuron protection by measurement of dopamine uptake (FIG. 15)” value (“neuron protection by measurement” for short) (10 μM) was “protection was also obtained”.

`C#CCN(C)Cc1ccccc1` [Pargyline, pargyline, reference compound] was tested, and the “neuron protection by measurement” value (at the concentrations used (0.5, 5 and 50 μM)) was “did not appear to offer any protection”.

In the case of `C#CCN(C)CCCOc1ccc(Cl)cc1Cl` [clorgyline, reference compound], the “neuron protection by measurement” value (50 μM) is reported as “protected”.
